Converted amounts (≈) assume the structure as drawn. “Also recorded” adds a separate entry of the source.
Legend:
[1] = background; cited from earlier work
[2] = tested on: L1210 lymphatic leukemia cells; assay: cells; assay type: cell-based, murine; settings: Mus musculus, L1210, 72 h, read-out: ED50
in vitro = settings: human, bone marrow gm-cfc
[3] = tested on: human myeloid cell line KBM-3; assay: cells
HL-60 = assay: Clonogenic assay, drug in agar, prolonged exposure (Table 8, FIG. 11); assay type: cell-based; settings: Homo sapiens, drug added to agar plates
[4] = tested on: mononuclear cells from normal bone marrow (GM-CFC)
KBM-3 = assay: Clonogenic assay, drug in agar, prolonged exposure (Table 8, FIG. 11); assay type: cell-based; settings: Homo sapiens, drug added to agar plates
KBM-3/DOX = assay: cells; assay type: cell-based, human; settings: Homo sapiens
[5] = Stability of frozen stock solution; assay type: physicochemical; settings: frozen at -80° C., stock solution 265 uM
Protocol: In the initial experiments, acetaldoifosphamide (1-C) was weighed and dissolved in Dulbecco's phosphate-buffered saline (pH 7.4) (GIBCO, Grand Island, N.Y.) supplemented with Ca++ (10 mg %) and glucose (100 mg %) (enriched PBS) immediately prior to each experiment. […] In subsequent experiments a frozen stock solution was used; aliquots were thawed as necessary immediately prior to use.

KBM-3/AMSA = assay: cells; assay type: cell-based, human; settings: Homo sapiens
[6] = Stability in phosphate-buffered saline
[7] = tested on: human myeloid cell line KBM-3
[8] = tested on: KBM-3 leukemic CFC and GM-CFC in bone marrow; assay: cells; assay type: cell-based, human
[9] = tested on: GM-CFC from normal human bone marrow
[10] = Long-term suspension culture: GM-CFC regrowth on autologous irradiated adherent cell layers (Table 9); assay type: cell-based, human; settings: human, bone marrow gm-cfc; concentration used in long-term suspension cultures; read-out: detectable GM-CFC abolished
Protocol: (§1) A modification of previously reported techniques was used (Gartner and Kaplan, 1980; Greenberg et al., 1981; Potter et al., 1981; Coulombel et al., 1983). Briefly, 1×10^7 mononuclear bone marrow cells were suspended in 10 ml IMDM supplemented with 12.5% horse serum, 12.5% FCS and 5×10^-6 M hydrocortisone succinate (HyC) (Abbott Laboratories, N. Chicago, Ill.) in 25 cm^2 tissue culture flasks (Corning Glass Works, Corning N.Y.). After 8 to 10 days an adherent fibroblast (feeder) layer, supplying a hemopoietic microenvironment, was established. The non-adherent cells were washed off, and the feeder layer was irradiated with 3.0 Gy gamma-irradiation at a dose rate of 3.3 Gy per min. A second bone marrow sample was obtained from the same donor, and low-density mononuclear cells were isolated as above. The cells were exposed for 60 min at 37° C. to increasing drug concentrations. After two washings, the cells were suspended in 10 ml IMDM with 10% FCS and 5×10^-6 M HyC, and then added to the previously established feeder layers. All cultures were established in duplicate, and all flasks were incubated for five weeks at 37° C. in an atmosphere of 5% CO2 and 12% O2 balanced with N2 to 100%. Twice weekly, 85% of the medium was replaced with fresh medium. Immediately after drug exposure, and at weekly intervals up to 5 weeks, one ml of the cell suspension was removed and monitored for the presence of GM-CFC using the soft agar assay as described above. The total number of surviving GM-CFC formed from untreated cells served as a quality control of the culture system and as a reference (positive controls) for calculating the surviving GM-CFC fraction in cultures of drug-treated cells Flasks containing irradiated stromal cell layers alone were subjected to the same twice-weekly media changes and were monitored weekly for possible regrowth of GM-CFC (negative controls). After five weeks, all non-adherent cells were removed from the flasks. The feeder layers were carefully rinsed twice with 10 ml of PBS, then treated with 0.2% trypsin in EDTA solution (GIBCO Laboratories, Grand Island, N.Y.) for 2-3 min at 37° C. After washing, the resulting single cell suspensions were assayed for GM-CFC.
(§2) ^a Average values ± S.D. for three experiments. In each experiment
(§3) the cultures were conducted in duplicates.
(§4) ^b At the end of the culture period. For details see Materials and […]

[11] = tested on: GM-CFC from normal human bone marrow; assay: as above; assay type: cell-based; settings: for GM-CFC × 10^-3 per adherent cell layer: end of culture period; for GM-CFC × 10^-3 per adherent cell layer / GM-CFC × 10^-3 per culture: average ± S.D.
Protocol: as §1, §2, §3, §4

HL-60/AMSA = assay: cells; assay type: cell-based; settings: Homo sapiens
[12] = tested on: mononuclear cells from normal bone marrow (GM-CFC); assay: cells; settings: Homo sapiens, 1 h

O=P1(N(CCCl)CCCl)NCCCO1 (stereo not drawn) [Cyclophosphamide, cyclophosphamide, reference compound]
therapeutic index, in words [1]: higher therapeutic index than must other mustard-type alkylating agents | IC50 [2]: 20 µg/mL (≈ 76.6 µM)

CC(=O)OC(CCOP(=O)(NCCCl)NCCCl)OC(C)=O [acetaldoifosphamide]
cytotoxicity at 1 h (in vitro): 95 to 100% | IC90 [3]: ~1.3 µM | IC50 (HL-60): 0.3 µM | effect of erythrocytes on activity [4]: decreases the activity | cytotoxicity relative to 4-HC on a molar basis ([4]; human): 8-10 times | IC50 (KBM-3): 0.2 µM | IC50 (KBM-3/DOX): 0.16 µM | retention of full cytotoxic activity on storage [5]: retained full cytotoxic activity for more than four months | IC50 (KBM-3/AMSA): 0.68 µM | half-life ([6]; pbs, pH 7.4): > 80 h | stability in saline solution ([6]; saline solution): stable in saline solution | activity against normal marrow GM-CFC versus leukemic myeloid CFC (KBM-3) [7]: more active against normal marrow GM-CFC than against leukemic myeloid CFC | dependence of cytotoxicity on cell concentration [7]: a 20-fold increase in cell concentration results in only a two-fold decrease in cytotoxicity | increase in clonogenic KBM-3 cell survival [7]: 2 fold | regrowth / elimination of leukemic cells [8]: leukemic cell proliferation was not evident; also recorded: no regrowth of leukemic CFC was observed; also recorded: the leukemia was completely eliminated with full recovery of GM-CFC production | log reduction at 39.6 µM ([8]; Homo sapiens, 1 h, read-out: reduction of leukemic cells): > 5 | GM-CFC doubling time [9]: 6 to 12 h | GM-CFC recovery kinetics / progenitor sparing, in words [9]: has a sparing effect on very immature hemopoietic stem cells | delay in proliferation of the GM-CFC pool [9]: 24 h | detectable GM-CFC after highest concentration [9]: initially had no detectable GM-CFC, however after day two rapid GM-CFC proliferation was apparent | cytotoxicity at 1 h [10]: > 99% | GM-CFC × 10^-3 per adherent cell layer ([11]; 26.4 uM): 0.22 ± 0.09 GM-CFC × 10^-3 per adherent ce | GM-CFC × 10^-3 per culture ([11]; 26.4 uM, week 0): 2.8 ± 1.5 GM-CFC × 10^-3 per culture | GM-CFC × 10^-3 per culture ([11]; 26.4 uM, week 1): 15.0 ± 1.8 GM-CFC × 10^-3 per culture | GM-CFC × 10^-3 per culture ([11]; 26.4 uM, week 2): 18.2 ± 4.6 GM-CFC × 10^-3 per culture | GM-CFC × 10^-3 per culture ([11]; 26.4 uM, week 3): 2.9 ± 1.1 GM-CFC × 10^-3 per culture | GM-CFC × 10^-3 per culture ([11]; 26.4 uM, week 4): 0.8 ± 0.4 GM-CFC × 10^-3 per culture | GM-CFC × 10^-3 per culture ([11]; 26.4 uM, week 5): 0.09 ± 0.03 GM-CFC × 10^-3 per culture | GM-CFC content of adherent cell layer vs controls ([11]; 33 uM, end of five weeks): contained more GM-CFC than the controls | GM-CFC × 10^-3 per adherent cell layer ([11]; 33.0 uM): 0.12 ± 0.04 GM-CFC × 10^-3 per adherent ce | GM-CFC × 10^-3 per culture ([11]; 33.0 uM, week 0): 0.1 ± 0.04 GM-CFC × 10^-3 per culture | GM-CFC × 10^-3 per culture ([11]; 33.0 uM, week 1): 7.7 ± 1.3 GM-CFC × 10^-3 per culture | GM-CFC × 10^-3 per culture ([11]; 33.0 uM, week 2): 18.6 ± 2.5 GM-CFC × 10^-3 per culture | GM-CFC × 10^-3 per culture ([11]; 33.0 uM, week 3): 2.6 ± 0.3 GM-CFC × 10^-3 per culture | GM-CFC × 10^-3 per culture ([11]; 33.0 uM, week 4): 1.1 ± 0.3 GM-CFC × 10^-3 per culture | GM-CFC × 10^-3 per culture ([11]; 33.0 uM, week 5): 0.13 ± 0.06 GM-CFC × 10^-3 per culture | GM-CFC content of adherent cell layer vs controls ([11]; 39.6 uM, end of five weeks): had the same GM-CFC content as the controls | GM-CFC × 10^-3 per adherent cell layer ([11]; 39.6 uM): 0.06 ± 0.03 GM-CFC × 10^-3 per adherent ce | GM-CFC × 10^-3 per culture ([11]; 39.6 uM, week 0): 0.3 ± 0.2 GM-CFC × 10^-3 per culture | GM-CFC × 10^-3 per culture ([11]; 39.6 uM, week 1): 16.8 ± 7.6 GM-CFC × 10^-3 per culture | GM-CFC × 10^-3 per culture ([11]; 39.6 uM, week 2): 18.5 ± 6.5 GM-CFC × 10^-3 per culture | GM-CFC × 10^-3 per culture ([11]; 39.6 uM, week 3): 3.9 ± 1.3 GM-CFC × 10^-3 per culture | GM-CFC × 10^-3 per culture ([11]; 39.6 uM, week 4): 0.8 ± 0.3 GM-CFC × 10^-3 per culture | GM-CFC × 10^-3 per culture ([11]; 39.6 uM, week 5): 0.10 ± 0.02 GM-CFC × 10^-3 per culture | number of GM-CFC in non-adherent and adherent population ([11]; 53 uM, end of five weeks): subnormal number of GM-CFC | GM-CFC × 10^-3 per adherent cell layer ([11]; 53.0 uM): 0.03 ± 0.01 GM-CFC × 10^-3 per adherent ce | GM-CFC × 10^-3 per culture ([11]; 53.0 uM, week 0): 0 GM-CFC × 10^-3 per culture | GM-CFC × 10^-3 per culture ([11]; 53.0 uM, week 1): 0.2 ± 0.0 GM-CFC × 10^-3 per culture | GM-CFC × 10^-3 per culture ([11]; 53.0 uM, week 2): 1.2 ± 0.2 GM-CFC × 10^-3 per culture | GM-CFC × 10^-3 per culture ([11]; 53.0 uM, week 3): 0.3 ± 0.1 GM-CFC × 10^-3 per culture | GM-CFC × 10^-3 per culture ([11]; 53.0 uM, week 4): 0.06 ± 0.02 GM-CFC × 10^-3 per culture | GM-CFC × 10^-3 per culture ([11]; 53.0 uM, week 5): 0.006 ± 0.002 GM-CFC × 10^-3 per culture | IC99 ([11]; Homo sapiens, 1 h, GM-CFC): 33 µM | IC100 ([11]; Homo sapiens, 1 h, GM-CFC): 53 µM | time to recovery of GM-CFC to control level ([11]; after bone marrow exposure): ≤ 2 weeks | GM-CFC recovery to control levels ([11]; normal bone marrow, concentration abolishing more than 99% of GM-CFC): two to three weeks | IC50 (HL-60/AMSA): 0.56 µM | IC50 [12]: 11.5 to 12.5 µM

From patent US5055459A, “Selective elimination of malignant cells from bone marrow by bis (acyloxy) propylphosphoramidates” (Board of Regents, The University of Texas, priority 1989, dated 1991)
